Ends that are not written are not given here.
What was measured:
[1] = tested on: T lymphocytes (Jurkat or Molt 4 cells); experiment: T lymphocyte adhesion to plasma fibronectin, tryptic fragments and CS peptides; assay type: cell-based, human
Experimental: Antibodies that would alter cell adhesion to purified plasma fibronectin, tryptic fragments and CS peptides were identified as previously described (Wayner and Carter, 1987). […] The plates were blocked with PBS supplemented with 10 mg/ml heat denatured BSA (HBSA). T lymphocyte or HT1080 cells were labeled with Na2 ^51CrO4 (50 μlCi/ml for 2–4 hr), washed, and 5×10^4 HT1080 or cultured T cells or […] were incubated with hybridoma culture supernatants (1:2 dilution in PBS supplemented with 1 mg/ml heat denatured BSA) or control myeloma cell culture supernatant for 15 minutes at room temperature. The cells were allowed to adhere to the protein-coated surfaces in the presence of the hybridoma supernatants for 15–30 minutes (HT1080) or 2–4 hours (lymphocytes) at 37° C. Non-adherent cells were removed by washing with PBS, and the adherent cells were dissolved in SDS/NaOH and bound ^51Cr-cpm were quantitated in a gamma counter.
Human plasma fibronectin was a generous gift from Drs. Horowitz and R. Schulman (New York Blood Center, N.Y.). […] Two overlapping peptides spanning the initial 48 residues of the IIICS region of human fibronectin (CS-1 and CS-2) were synthesized and coupled to rabbit IgG as described (Humphries et al., 1986, and Humphries et al., 1987, J. Biol. Chem. 262:6886–6892).

Jurkat cells [2] = experiment: Peptide inhibition of Jurkat cell adhesion to plasma fibronectin (50% inhibition point); assay type: cell-based, human; conditions: read-out: Molar Concentration (mM) required for 50% inhibition of Jurkat cell adhesion to plasma fibronectin; fibronectin 5 ug/ml; 30 min
Experimental: For peptide inhibition studies, ^51Cr-labeled test cells were pre-incubated with CS-1 derived peptides at various concentrations for 15 min at room temperature. The test cells were then allowed to attach to fibronectin-coated surfaces in the presence of exogenous test peptides for 30–60 min. The assay then proceeded as described above.
For these experiments in Table XIII ^51Cr-labeled Jurkat cells (10^5/well) were incubated in the presence of the varying concentrations (starting at 2 mg/ml) of the indicated peptides for 15 min. The Jurkat cells were then allowed to adhere to plasma fibronectin-coated surfaces (5 ug/ml) in the presence of the peptides for 30 min. Adhesion to fibronectin was graphically depicted as cpm bound to the fibronectin surface (Y axis), plotted as a function of molar peptide concentration (X axis).

[3] = tested on: LAD (B) lymphocyte adhesion to HUVE monolayers; experiment: Endothelial cell adhesion assay, LAD cells on HUVE monolayers; assay type: cell-based, human; conditions: for Adhesion (cpm) Basal: basal HUVE; for Adhesion (cpm) +IL-1β: IL-1β activated HUVE
Experimental: (§1) HUVEs were incubated with IL-1 β (1 ng/ml) or in some experiments with TNF α (10 ng/ml) for 6–24 hours. At the end of this incubation the HUVE monolayers were washed and used in the adhesion assay.
(§2) Human umbilical vein endothelial cells (HUVEs) were cultured in 48 well plates as described (supra). To measure adherence of lymphocytes to HUVE monolayer cultures, lymphocytes were labeled with Na2 ^51CrO4 (50 μCi/ml) for 2–4 hours), washed, and then 10^5 lymphocytes were incubated with HUVE monolayers in the presence or absence of inhibitory antibodies or CS-1 derived peptides. The lymphocytes were allowed to adhere for 30 minutes at 37°. Non-adherent cells were subsequently removed by washing with PBS, and the adherent cells were dissolved in SDS/NaOH. Bound ^51Cr-cpm were quantitated in a gamma counter. In some experiments, endothelial cells were activated prior to the adhesion assay by incubating with IL-1 β (1 ng/ml) or […] (10 ng/ml) for 6–24 hours in defined CS-100 media (Cell Systems, Seattle, Wash.).

[4] = tested on: Ramos (B) lymphocyte adhesion to HUVE monolayers; experiment: Endothelial cell adhesion assay, Ramos cells on HUVE monolayers; assay type: cell-based, human; conditions: for Adhesion (cpm) Basal: basal HUVE; for Adhesion (cpm) +IL-1β: IL-1β activated HUVE
Experimental: as §1, §2

[5] = tested on: Jurkat (T) lymphocyte adhesion to HUVE monolayers; experiment: Endothelial cell adhesion assay, Jurkat cells on HUVE monolayers; assay type: cell-based, human; conditions: for Adhesion (cpm) Basal: basal HUVE; for Adhesion (cpm) +IL-1β: IL-1β activated HUVE
Experimental: as §1, §2

integrin receptor α4β1 = integrin receptor α4β1 (human, UniProt P13612 34-1032; P05556 21-798); experiment: cell-based or functional assay
Jurkat cells [6] = experiment: Jurkat cell adhesion to surfaces coated with peptide-rsa conjugates; assay type: cell-based, human; conditions: FIGS. 13-15; Jurkat, U937 and HUT 78 cells
Experimental: ^51Cr-labeled Jurkat cells ([…]) were incubated on surfaces coated with varying concentrations of peptide-rsa conjugates starting at 50 ug/ml (w/v) fragment or peptide (based on peptide not peptide-conjugate weight). […] (No adhesion=no measurable adhesion above negative controls.)
Adhesion of various hematopoetic cell lines to CS-1 (open bars; FIG. 12) or LDV minimal peptide-coated surfaces (cross-hatched bars; FIG. 12) was tested as follows: Jurkat (T lymphoblastoid), A375 (melanoma), U937 (monocytic), Ramos (B lymphoblastoid), and ST-1 (EBV transformed B lymphoblastoid) cells were allowed to adhere to CS-1-rsa or LDVPST-rsa (5 ug/ml peptide) coated surfaces for 30 min at 37° C. At the end of this time the non-adherent cells were washed off and the adherent cells were solubilized in NaOH/SDS and quantitated in a gamma counter. The results are expressed as bound counts per minute.

integrin receptor α4β1, sequence (P13612 34-1032, form in doubt, chain 1 of 2): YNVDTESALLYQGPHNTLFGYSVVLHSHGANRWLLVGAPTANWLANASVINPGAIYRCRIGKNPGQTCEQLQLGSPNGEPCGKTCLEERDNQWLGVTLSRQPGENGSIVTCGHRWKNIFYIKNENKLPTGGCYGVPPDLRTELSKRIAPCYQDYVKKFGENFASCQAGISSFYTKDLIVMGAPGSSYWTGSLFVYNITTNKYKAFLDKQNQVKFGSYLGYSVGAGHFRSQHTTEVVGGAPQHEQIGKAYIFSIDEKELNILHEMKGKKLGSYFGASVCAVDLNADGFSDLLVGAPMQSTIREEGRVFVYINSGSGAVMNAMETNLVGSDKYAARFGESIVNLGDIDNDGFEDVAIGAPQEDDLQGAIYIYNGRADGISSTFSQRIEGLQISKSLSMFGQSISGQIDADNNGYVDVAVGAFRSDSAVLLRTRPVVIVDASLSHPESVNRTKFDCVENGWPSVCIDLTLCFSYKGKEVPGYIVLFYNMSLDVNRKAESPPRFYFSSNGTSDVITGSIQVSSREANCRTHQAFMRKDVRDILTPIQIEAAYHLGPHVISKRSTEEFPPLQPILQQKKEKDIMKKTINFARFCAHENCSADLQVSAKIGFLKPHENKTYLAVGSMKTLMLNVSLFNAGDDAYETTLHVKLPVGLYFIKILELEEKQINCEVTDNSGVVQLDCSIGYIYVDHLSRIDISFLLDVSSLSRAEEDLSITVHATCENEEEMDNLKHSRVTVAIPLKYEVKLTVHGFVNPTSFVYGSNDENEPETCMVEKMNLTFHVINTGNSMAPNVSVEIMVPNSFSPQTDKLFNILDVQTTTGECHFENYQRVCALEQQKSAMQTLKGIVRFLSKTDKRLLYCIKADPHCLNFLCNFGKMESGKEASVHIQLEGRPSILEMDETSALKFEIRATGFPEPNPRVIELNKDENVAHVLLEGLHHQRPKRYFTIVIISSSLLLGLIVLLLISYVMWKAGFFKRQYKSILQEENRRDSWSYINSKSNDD
integrin receptor α4β1, sequence (P05556 21-798, form in doubt, chain 2 of 2): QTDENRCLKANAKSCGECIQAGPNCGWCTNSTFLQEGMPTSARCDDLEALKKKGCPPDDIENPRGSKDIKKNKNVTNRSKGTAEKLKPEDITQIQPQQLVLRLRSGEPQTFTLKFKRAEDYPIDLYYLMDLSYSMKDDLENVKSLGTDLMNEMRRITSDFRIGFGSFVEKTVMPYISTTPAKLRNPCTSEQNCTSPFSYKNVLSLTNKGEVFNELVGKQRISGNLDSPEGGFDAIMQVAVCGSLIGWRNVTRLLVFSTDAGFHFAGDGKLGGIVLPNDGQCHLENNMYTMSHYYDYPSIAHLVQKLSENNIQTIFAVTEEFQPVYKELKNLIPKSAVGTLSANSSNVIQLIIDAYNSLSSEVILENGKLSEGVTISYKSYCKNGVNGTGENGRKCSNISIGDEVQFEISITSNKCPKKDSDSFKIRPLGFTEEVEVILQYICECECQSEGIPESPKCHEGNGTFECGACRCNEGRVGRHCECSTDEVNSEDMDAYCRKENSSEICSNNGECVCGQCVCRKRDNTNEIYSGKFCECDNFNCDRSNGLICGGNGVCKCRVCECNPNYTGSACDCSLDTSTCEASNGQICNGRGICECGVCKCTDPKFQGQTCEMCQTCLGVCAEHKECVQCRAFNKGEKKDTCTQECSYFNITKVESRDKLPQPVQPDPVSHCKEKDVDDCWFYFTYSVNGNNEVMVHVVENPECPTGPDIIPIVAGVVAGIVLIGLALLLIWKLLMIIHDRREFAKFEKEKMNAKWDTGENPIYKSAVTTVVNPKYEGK

CS-1 (rabbit IgG conjugate): CS-1 peptide coupled to rabbit IgG (DELPQLVTLPHPNLHGPEILDVPST; also: coupled to rabbit IgG, site not given here)
T lymphocyte attachment to peptide (rabbit IgG conjugate)-coated plastic surfaces [1]: recognize and attach

CS-2 (rabbit IgG conjugate): CS-2 peptide of the IIICS region coupled to rabbit IgG (PSTVQKTPFVTHPGYDTGNGIQLPGT; also: coupled to rabbit IgG, site not given here)
T lymphocyte attachment to peptide (rabbit IgG conjugate)-coated plastic surfaces [1]: do not attach

DELPQLVTLPHPN [Peptide A13, N-terminal peptide of CS-1]
IC50 (Jurkat cells [2]): > 1 mM

DELPQLVTLPHPNLHGPEILDVPST [Peptide 344, synthetic CS-1 peptide of the fibronectin IIICS region]
Adhesion (cpm) Basal ([3]; peptides, Table X): 17500 cpm | Adhesion (cpm) Basal ([4]; peptides, Table X): 1660 cpm | Adhesion (cpm) Basal ([5]; peptides, Table X): 29568 cpm

LDVPST [Peptide 351]
Adhesion (cpm) +IL-1β ([3]; Table XI, no peptide 71408): 92792 cpm | Adhesion (cpm) Basal ([3]; Table XI, no peptide 44860): 39700 cpm | Adhesion (cpm) +IL-1β ([4]; Table XI, no peptide 12936): 15092 cpm | Adhesion (cpm) Basal ([4]; Table XI, no peptide 2724): 3532 cpm | IC50 (Jurkat cells [2]): > 1.6 mM | Adhesion (cpm) +IL-1β ([5]; Table XI, no peptide 314848): 326260 cpm | Adhesion (cpm) Basal ([5]; Table XI, no peptide 161092): 166948 cpm

LDVPST peptide
Adhesion (cpm), Jurkat (T) on HUVE, +IL-1β; no peptide 314848 (integrin receptor α4β1): 326000 cpm | Adhesion (cpm), Jurkat (T) on HUVE, Basal; no peptide 161092 (integrin receptor α4β1): 167000 cpm | Adhesion (cpm), LAD (B) on HUVE, +IL-1β; no peptide 71408 (integrin receptor α4β1): 92800 cpm | Adhesion (cpm), LAD (B) on HUVE, Basal; no peptide 44860 (integrin receptor α4β1): 39700 cpm | Adhesion (cpm), Ramos (B) on HUVE, +IL-1β; no peptide 12936 (integrin receptor α4β1): 15100 cpm | Adhesion (cpm), Ramos (B) on HUVE, Basal; no peptide 2724 (integrin receptor α4β1): 3530 cpm

VPST [Peptide 350]
Adhesion (cpm) +IL-1β ([3]; Table XI, no peptide 71408): 98860 cpm | Adhesion (cpm) +IL-1β ([3]; peptides, Table X): 42728 cpm | Adhesion (cpm) Basal ([3]; Table XI, no peptide 44860): 38176 cpm | Adhesion (cpm) +IL-1β ([4]; Table XI, no peptide 12936): 15320 cpm | Adhesion (cpm) +IL-1β ([4]; peptides, Table X): 4568 cpm | Adhesion (cpm) Basal ([4]; Table XI, no peptide 2724): 4168 cpm | IC50 (Jurkat cells [2]): > 2.5 mM | Adhesion (cpm) +IL-1β ([5]; Table XI, no peptide 314848): 322208 cpm | Adhesion (cpm) +IL-1β ([5]; peptides, Table X): 127544 cpm | Adhesion (cpm) Basal ([5]; Table XI, no peptide 161092): 203716 cpm

VPST-rsa: VPST conjugated to rabbit serum albumin (also: conjugated to rabbit serum albumin)
Induction of stable cell adhesion (Jurkat cells [6]): relatively inactive in inducing stable cell adhesion

leu-asp-val (Leu-Asp-Val; not fully specified; printed as leu-asp-val) [LDV]
IC50 (Jurkat cells [2]): > 2.7 mM

From patent US7238668B1, “Inhibition of lymphocyte adherence with CS-1-peptides and fragments thereof” (Fred Hutchinson Cancer Research Center, priority 1989, dated 2007)
